Data taken from article PMC9001717, “Tyrosine 121 moves revealing a ligandable pocket that couples catalysis to ATP-binding in serine racemase” (Communications Biology, 2022).
Numbering of substitutions follows the chain as printed. pIC50, pKi: −log10 of the molar value. Read-outs that look alike come from different tables or passages of the source.

What was measured:
hSR Tyr 121 pocket = biological target: T1, hSR Tyr 121 pocket (Homo sapiens, UniProt Q9GZT4, C2D/C6D); assay: XChem crystallographic fragment screen; type: binding; design: key: A = best; D = worst; settings: crystals soaked with 150 mM fragment
T1 construct: (His)6 (C); made in house; host or cells: E. coli (BL21-CodonPlus (DE3)-RIL for the mutants; the wild type is only 'as described[33]')
T1 sequence (Q9GZT4 1-340 C2D/C6D): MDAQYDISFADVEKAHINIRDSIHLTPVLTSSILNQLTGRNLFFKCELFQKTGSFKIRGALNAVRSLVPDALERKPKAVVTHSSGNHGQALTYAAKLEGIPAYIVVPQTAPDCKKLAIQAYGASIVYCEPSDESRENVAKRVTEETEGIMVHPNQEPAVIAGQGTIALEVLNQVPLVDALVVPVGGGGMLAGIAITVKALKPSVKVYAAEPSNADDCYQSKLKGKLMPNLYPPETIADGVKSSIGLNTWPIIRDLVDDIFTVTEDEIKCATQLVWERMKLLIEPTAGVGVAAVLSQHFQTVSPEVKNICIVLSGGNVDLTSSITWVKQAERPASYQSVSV
Protocol: A crystallographic fragment screen was performed on holo crystals using the XChem screening strategy at Diamond Light Source[58]. For the XChem experiments, holo crystals were generated at 20 °C in 96-well Swissci 3-drop, sitting drop plates (Molecular Dimensions) using 14 mg/mL SR plus fresh 5 mM DTT dispensed in a 3:2 ratio (300 nL protein + 200 nL reservoir) equilibrated against 20 μL reservoir containing 100 mM MES pH 6.2, 100 mM Calcium chloride, 5% ethylene glycol and 20% PEG Smear Broad (Molecular Dimensions). This crystallisation condition differs from that reported in a recent crystal structure of holo SR (6SLH) which was crystallised against reservoir/precipitate of 100 mM Bis-Tris pH 6.5, 15% PEG 3350, 250 mM MgCl2[33]. ATP was present in the protein delivery buffer at 1.25-fold times the protein subunit concentration.
Crystal soaking, harvesting, mounting, and data collections were performed at the Diamond Light Source XChem facilities and beamline I04-1 through the XChem workflow[50],[59]. […] The full compound screen was performed on 600 crystals which were each soaked with 150 mM fragment compound (30% v/v of 500 mM stocks in DMSO) for ≥1.5 h before crystals were harvested and mounted on the fast microscope crystal mounting system. The fragments screened were obtained from the Diamond-SGC-iNext Poised (DSiP) XChem library.
The structure of the representative XChem holo crystal (20% DMSO soak, no fragment) presented in this paper (6ZUJ) was solved by rigid body refinement based on a previous structure (6SLH)[33] and refined with phenix.refine[71] and REFMAC5[68],[72] and modelled in coot[69]. Initial analysis of approx. 600 ligand-soaked crystals was carried out using XChemExplorer[59] a data-management and workflow tool to support large-scale simultaneous analysis of protein–ligand complexes during structure-based ligand discovery. The workflow flagged 95 structures with binding events, 44 of which were classified as interesting, spanning four distinct binding sites. Five SR structures from the XChem screen are described in this paper that are representative examples of the four major binding sites. One compound, 2-x0406, occupied not just one of the four major binding sites, but also occupied a second site adjacent to the tyrosine 121 pocket.

[1] = biological target: T2, human serine racemase (hSR) WT (Homo sapiens, UniProt Q9GZT4, C2D/C6D); assay: L- to D-Ser racemisation coupled luminescence assay, wild-type hSR; type: biochemical; settings: for IC50: wild-type hSR, 1 mM ATP, 2 mM L-serine, 16.7% DMSO, ~ = extrapolated with artificial 100% point at 1 M; for inhibition of SR, in words: assay data for compounds observed to displace Tyr 121; for inhibition at 16700 µM: maximum compound concentration 16.7mM, read-out: inhibition at maximum concentration used in assay
T2 construct: (His)6 (C); made in house; host or cells: E. coli (BL21-CodonPlus (DE3)-RIL for the mutants; the wild type is only 'as described[33]')
T2 sequence (Q9GZT4 1-340 C2D/C6D): T1 sequence (Q9GZT4 1-340 C2D/C6D)
Protocol: (§1) The ability of compounds to inhibit the L to D-Ser racemisation activity of hSR was measured in a coupled assay. In the assay, hSR converts L-Ser to D-Ser. The D-Ser is then converted into pyruvate, ammonia and hydrogen peroxide using D-amino acid oxidase. Next, the hydrogen peroxide reacts with luminol in the presence of horseradish peroxidase, producing luminescent by-product. In the assay malonate was used as a control compound and gave 100% inhibition – results for XChem compounds are shown in Supplementary Table 4 and in supplementary Fig. 12. The activity of the wild-type and the three Y121 mutants, Y121F, Y121A and Y121G was measured at six ATP concentrations (1 mM, 0.5 mM, 0.25 mM, 0.125 mM, 0.062 mM and 0.031 mM) as shown in supplementary Fig. 11.
(§2) The inhibition of hSR activity was measured using a luminescence assay in a 384 well plate (flat bottom white, Corning). Initially, each well contained 100 mM Tris pH 8.5, 0.05% Pluronic f-127 (VWR), 1 mM MgCl2, 1 mM ATP (disodium salt, Fisher), 10 µM PLP, 0.3 nM hSR, 2 mM L-serine and compound at 16.67 mM to 0.0077 mM (see supplementary Fig. 12) and had 16.7% DMSO concentration. The plate was incubated at RT with shaking for 30 min. After this, the reaction was stopped using a detection mix. The final well concentration was 100 mM Tris pH 8.5, 0.05% Pluronic f-127 (VWR), 1 mM EDTA (Fisher), 0.25 U/mL horseradish peroxidase, 0.5 U/mL D-amino acid oxidase and 25 µM Luminol (Insight Biotechnology) and 8.4% DMSO. The plate was left to incubate covered and shaking for 10 min. The plate was then read using a PHERAstar (BMG) plate reader. For the ATP dependant activity data, the method was kept the same, except for varying the concentration of ATP.
(§3) The relative light units read (x) on the PHERAstar were converted into percentage inhibition (PI) using the equation: PI=100x[1−(x−Min)/(Max−Min)] where min is negative control (100% inhibition) and max is the positive control (no inhibition). The IC50s were calculated with GraphPad (Prism 8.3.1, Graphpad Software, San Diego CA).

hSR Y121A = biological target: T3, hSR Y121A (Homo sapiens, UniProt Q9GZT4, C2D/C6D/Y121A); assay: L- to D-Ser racemisation coupled luminescence assay, Y121A mutant; type: biochemical; settings: 1 mM ATP, 2 mM L-serine, 16.7% DMSO, ~ = extrapolated
T3 construct: (His)6 (C); made in house; host or cells: E. coli BL21-CodonPlus (DE3)-RIL
T3 sequence (Q9GZT4 1-340 C2D/C6D/Y121A): T1 sequence (Q9GZT4 1-340 C2D/C6D) with Y121A
Protocol: as §1, §2, §3

hSR Y121F = biological target: T4, hSR Y121F (Homo sapiens, UniProt Q9GZT4, C2D/C6D/Y121F); assay: L- to D-Ser racemisation coupled luminescence assay, Y121F mutant; type: biochemical; settings: 1 mM ATP, 2 mM L-serine, 16.7% DMSO, ~ = extrapolated
T4 construct: (His)6 (C); made in house; host or cells: E. coli BL21-CodonPlus (DE3)-RIL
T4 sequence (Q9GZT4 1-340 C2D/C6D/Y121F): T1 sequence (Q9GZT4 1-340 C2D/C6D) with Y121F
Protocol: as §1, §2, §3

hSR Y121G = biological target: T5, hSR Y121G (Homo sapiens, UniProt Q9GZT4, C2D/C6D/Y121G); assay: L- to D-Ser racemisation coupled luminescence assay, Y121G mutant; type: biochemical; settings: 1 mM ATP, 2 mM L-serine, 16.7% DMSO, ~ = extrapolated
T5 construct: (His)6 (C); made in house; host or cells: E. coli BL21-CodonPlus (DE3)-RIL
T5 sequence (Q9GZT4 1-340 C2D/C6D/Y121G): T1 sequence (Q9GZT4 1-340 C2D/C6D) with Y121G
Protocol: as §1, §2, §3

rat brain SR = test system: rat brain SR; design: method as in PMID 30918891, PMID 12021263; settings: cited from earlier work
SR [2] = test system: SR; design: method as in supplementary refs 2, 11-32; settings: literature summary; ref supplementary refs 2, 11-32; cited from earlier work
SR [3] = settings: cited from earlier work; for pKi: review of SR inhibitors
[4] = test system: slime mould (D. discoideum) SR; design: method as in ref 56 (a number printed in a supplementary file, which may have a reference list of its own: not looked up in the article's list); settings: ref 56; cited from earlier work

Compound	Initial rank from examination of XChem electron density/fit (hSR Tyr 121 pocket)	IC50 [1] [mM]	IC50 (hSR Y121A) [mM]	IC50 (hSR Y121F) [mM]	other results
CC(=O)NCCc1ccccc1C [1-x0495]	A	~19.5	~23.6	–	inhibition at 10000 µM ([1]; 10mM, value of the originally submitted manuscript, quoted in peer review file): 102%
O=C(NCc1nc2ccccc2[nH]1)c1ccco1 [2-x0406]	–	~3.7	~8.4	~7.8	IC50 (hSR Y121G): ~7.4 mM
Nc1ccccc1N1CCOCC1 [3-x0458]	–	0.0106	0.0094	0.0123	IC50 (hSR Y121G): 0.0234 mM; inhibition of SR, in words [1]: reasonably potent inhibitors; inhibition at 16700 µM [1]: 100%
CC(=O)NC1CNc2ccccc2C1 (centres unmarked) [4-x0482]	–	0.0051	0.0033	0.0032	IC50 (hSR Y121G): 0.0044 mM; inhibition of SR, in words [1]: reasonably potent inhibitors; inhibition at 16700 µM [1]: 100%
[Ca+2] [Ca^2+]	–	–	–	–	SR activity in the presence of the ion (rat brain SR; 1 mM ion): 134%
N[C@@H](CC(=O)NO)C(=O)O [L-aspartic acid β-hydroxamate]	–	–	–	–	Inhibition mode (SR [2]): Competitive; pKi (SR [3]): > 4.00
N[C@H](C(=O)O)[C@H](O)C(=O)O [L-erythro-3-hydroxy-aspartate]	–	–	–	–	Inhibition mode (SR [2]): Competitive; pKi (SR [3]): > 4.00
Nc1ncnc2c1ncn2[C@@H]1O[C@H](COP(=O)(O)OP(=O)([O-])OP(=O)([O-])O)[C@@H](O)[C@H]1O.[Mg+2] [Mg-ATP]	–	–	–	–	increase of elimination [4]: 6 fold; increase of racemisation [4]: 2.5 fold
[Mg+2] [Mg^2+]	–	–	–	–	SR activity in the presence of the ion (rat brain SR; 10 μM ion): 112%
[Mn+2] [Mn^2+]	–	–	–	–	SR activity in the presence of the ion (rat brain SR; 10 μM ion): 153%
madecassoside	–	–	–	–	Inhibition mode (SR [2]): Competitive; pIC50 (SR [3]; ref 49): 4.59

The next lines start with results.

Initial rank from examination of XChem electron density/fit (hSR Tyr 121 pocket)	IC50 [1] [mM]	IC50 (hSR Y121A) [mM]	IC50 (hSR Y121F) [mM]	Compound	other results
D	–	–	–	NC(=O)c1cnc(C(F)(F)F)nc1 [5-x0501]	–
A	–	–	–	CNCC1COc2ccccc2O1 (centres unmarked) [6-x0513]	–
–	~12.5	~22.3	~20.7	O=C(CCCc1ccccc1)N1CCOCC1 [7-x0109]	IC50 (hSR Y121G): ~26 mM
D	–	–	–	CCCc1nnc(NC(=O)c2ccccn2)s1 [8-x0127]	–
D	–	–	–	Cn1nccc1C(=O)NCc1cccs1 [9-x0154]	–
D	–	–	–	CC(CS(N)(=O)=O)c1ccccc1 (centres unmarked) [10-x0302]	–
D	~25.3	~37.6	~29.9	NCc1cc(-c2ccccc2)no1 [12-x0437]	IC50 (hSR Y121G): ~26.3 mM
–	~6.9	~7.85	~7.4	OCc1ccc(-n2cnc3ccccc32)cc1 [14-x0478]	–
–	~12.8	~16.1	–	CS(=O)(=O)Cc1nc2ccccc2[nH]1 [15-x0306]	–
